target: T1, HIV-integrase (Human immunodeficiency virus type 1 group M subtype B, UniProt P12497); experiment: HIV-Integrase Inhibition Activity (SPA bead strand-transfer assay); format: biochemical; settings: Table 1; read-out: Activity (HIV-integrase inhibition, IC50 class)
T1 construct: Recombinant integrase (0.26 ng) was incubated with the beads
In short: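 Biotin-labelled substrate DNA (5 pmole) bound to streptavidin SPA beads, preloaded with recombinant integrase (0.26 ng) for 90 min at 37° C, then washed. Inhibitors and 0.1 fmol P33-labelled target DNA added; reaction stopped with 10 mM EDTA. Integration read as scintillation CPM.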

Structure (SMILES) | IC50 [nM]
CC1(C)OCCn2c1nc(C(=O)NCc1ccccc1N1CCCCS1(=O)=O)c(O)c2=O [Example 215, Pyrimido[2,1-c][1,4]oxazine-2-carboxamide, 4,6,7,9-tetrahydro-3-hydroxy-9,9-dimethyl-4-oxo-N-[[2-(tetrahydro-1,1-dioxido-2H-1,2-thiazin-2-yl)phenyl]methyl]-] | 2 to 100
CC1(C)OCCn2c1nc(C(=O)NCc1ccccc1-n1cncn1)c(O)c2=O [Example 216, Pyrimido[2,1-c][1,4]oxazine-2-carboxamide, 4,6,7,9-tetrahydro-3-hydroxy-9,9-dimethyl-4-oxo-N-[[2-(1H-1,2,4-triazol-1-yl)phenyl]methyl]-] | 2 to 100
CC1(C)OCCn2c1nc(C(=O)NCCCc1ccccc1)c(O)c2=O [Example 217, Pyrimido[2,1-c][1,4]oxazine-2-carboxamide, 4,6,7,9-tetrahydro-3-hydroxy-9,9-dimethyl-4-oxo-N-(3-phenylpropyl)-] | 2 to 100
CC1(C)OCCn2c1nc(C(=O)NCc1ccc3c(c1)OCO3)c(O)c2=O [Example 218, Pyrimido[2,1-c][1,4]oxazine-2-carboxamide, N-(1,3-benzodioxol-5-ylmethyl)-4,6,7,9-tetrahydro-3-hydroxy-9,9-dimethyl-4-oxo-] | 2 to 100
CC1(C)OCCn2c1nc(C(=O)NCc1ccccc1)c(O)c2=O [Example 219, Pyrimido[2,1-c][1,4]oxazine-2-carboxamide, 4,6,7,9-tetrahydro-3-hydroxy-9,9-dimethyl-4-oxo-N-(phenylmethyl)-] | 2 to 100
CC1(C)OCCn2c1nc(C(=O)NCc1cccc(F)c1)c(O)c2=O [Example 220, Pyrimido[2,1-c][1,4]oxazine-2-carboxamide, N-[(3-fluorophenyl)methyl]-4,6,7,9-tetrahydro-3-hydroxy-9,9-dimethyl-4-oxo-] | 2 to 100
CC1(C)OCCn2c1nc(C(=O)NCc1ccc(Cl)c(Cl)c1)c(O)c2=O [Example 221, Pyrimido[2,1-c][1,4]oxazine-2-carboxamide, N-[(3,4-dichlorophenyl)methyl]-4,6,7,9-tetrahydro-3-hydroxy-9,9-dimethyl-4-oxo-] | 2 to 100
COc1cccc(CNC(=O)c2nc3n(c(=O)c2O)CCOC3(C)C)c1 [Example 222, Pyrimido[2,1-c][1,4]oxazine-2-carboxamide, 4,6,7,9-tetrahydro-3-hydroxy-N-[(3-methoxyphenyl)methyl]-9,9-dimethyl-4-oxo-] | 2 to 100
Cc1cccc(CNC(=O)c2nc3n(c(=O)c2O)CCOC3(C)C)c1 [Example 223, Pyrimido[2,1-c][1,4]oxazine-2-carboxamide, 4,6,7,9-tetrahydro-3-hydroxy-9,9-dimethyl-N-[(3-methylphenyl)methyl]-4-oxo-] | 2 to 100
CC1(C)OCCn2c1nc(C(=O)NCc1cc(F)ccc1F)c(O)c2=O [Example 224, Pyrimido[2,1-c][1,4]oxazine-2-carboxamide, N-[(2,5-difluorophenyl)methyl]-4,6,7,9-tetrahydro-3-hydroxy-9,9-dimethyl-4-oxo-] | 2 to 100
COc1cc(CNC(=O)c2nc3n(c(=O)c2O)CCOC3(C)C)ccc1O [Example 225, Pyrimido[2,1-c][1,4]oxazine-2-carboxamide, 4,6,7,9-tetrahydro-3-hydroxy-N-[(4-hydroxy-3-methoxyphenyl)methyl]-9,9-dimethyl-4-oxo-] | 2 to 100
CC1(C)OCCn2c1nc(C(=O)NCc1cccc(Cl)c1)c(O)c2=O [Example 226, Pyrimido[2,1-c][1,4]oxazine-2-carboxamide, N-[(3-chlorophenyl)methyl]-4,6,7,9-tetrahydro-3-hydroxy-9,9-dimethyl-4-oxo-] | 2 to 100
CC1(C)OCCn2c1nc(C(=O)NCc1cccc(Cl)c1Cl)c(O)c2=O [Example 227, Pyrimido[2,1-c][1,4]oxazine-2-carboxamide, N-[(2,3-dichlorophenyl)methyl]-4,6,7,9-tetrahydro-3-hydroxy-9,9-dimethyl-4-oxo-] | 2 to 100
CC1(C)OCCn2c1nc(C(=O)NCc1cc(Cl)ccc1Cl)c(O)c2=O [Example 228, Pyrimido[2,1-c][1,4]oxazine-2-carboxamide, N-[(2,5-dichlorophenyl)methyl]-4,6,7,9-tetrahydro-3-hydroxy-9,9-dimethyl-4-oxo-] | 2 to 100
COc1cccc(CNC(=O)c2nc3n(c(=O)c2O)CCOC3(C)C)c1OC [Example 229, Pyrimido[2,1-c][1,4]oxazine-2-carboxamide, N-[(2,3-dimethoxyphenyl)methyl]-4,6,7,9-tetrahydro-3-hydroxy-9,9-dimethyl-4-oxo-] | 2 to 100
CC1(C)OCCn2c1nc(C(=O)NCc1ccc3c(c1)OCCO3)c(O)c2=O [Example 230, Pyrimido[2,1-c][1,4]oxazine-2-carboxamide, N-[(2,3-dihydro-1,4-benzodioxin-6-yl)methyl]-4,6,7,9-tetrahydro-3-hydroxy-9,9-dimethyl-4-oxo-] | 2 to 100

Structure (SMILES) | IC50 [nM]
Cc1ccc(CNC(=O)c2nc3n(c(=O)c2O)CCOC3(C)C)cc1Cl [Example 231, Pyrimido[2,1-c][1,4]oxazine-2-carboxamide, N-[(3-chloro-4-methylphenyl)methyl]-4,6,7,9-tetrahydro-3-hydroxy-9,9-dimethyl-4-oxo-] | 2 to 100
COc1ccc(CNC(=O)c2nc3n(c(=O)c2O)CCOC3(C)C)c(OC)c1 [Example 232, Pyrimido[2,1-c][1,4]oxazine-2-carboxamide, N-[(2,4-dimethoxyphenyl)methyl]-4,6,7,9-tetrahydro-3-hydroxy-9,9-dimethyl-4-oxo-] | 2 to 100
Cc1cccc(CNC(=O)c2nc3n(c(=O)c2O)CCOC3(C)C)c1C [Example 233, Pyrimido[2,1-c][1,4]oxazine-2-carboxamide, N-[(2,3-dimethylphenyl)methyl]-4,6,7,9-tetrahydro-3-hydroxy-9,9-dimethyl-4-oxo-] | 2 to 100
COc1ccc(OC)c(CNC(=O)c2nc3n(c(=O)c2O)CCOC3(C)C)c1 [Example 235, Pyrimido[2,1-c][1,4]oxazine-2-carboxamide, N-[(2,5-dimethoxyphenyl)methyl]-4,6,7,9-tetrahydro-3-hydroxy-9,9-dimethyl-4-oxo-] | 2 to 100
Cc1c(Cl)cccc1CNC(=O)c1nc2n(c(=O)c1O)CCOC2(C)C [Example 236, Pyrimido[2,1-c][1,4]oxazine-2-carboxamide, N-[(3-chloro-2-methylphenyl)methyl]-4,6,7,9-tetrahydro-3-hydroxy-9,9-dimethyl-4-oxo-] | 2 to 100
CC1(C)OCCn2c1nc(C(=O)NCc1cc(F)cc(C(F)(F)F)c1)c(O)c2=O [Example 237, Pyrimido[2,1-c][1,4]oxazine-2-carboxamide, N-[[3-fluoro-5-(trifluoromethyl)phenyl]methyl]-4,6,7,9-tetrahydro-3-hydroxy-9,9-dimethyl-4-oxo-] | 2 to 100
CC1(C)OCCn2c1nc(C(=O)NCc1cccc(F)c1F)c(O)c2=O [Example 238, Pyrimido[2,1-c][1,4]oxazine-2-carboxamide, N-[(2,3-difluorophenyl)methyl]-4,6,7,9-tetrahydro-3-hydroxy-9,9-dimethyl-4-oxo-] | 2 to 100
COc1ccc(CNC(=O)c2nc3n(c(=O)c2O)CCOC3(C)C)cc1Cl [Example 239, Pyrimido[2,1-c][1,4]oxazine-2-carboxamide, N-[(3-chloro-4-methoxyphenyl)methyl]-4,6,7,9-tetrahydro-3-hydroxy-9,9-dimethyl-4-oxo-] | 2 to 100
Cc1ccc(CNC(=O)c2nc3n(c(=O)c2O)CCOC3(C)C)cc1 [Example 240, Pyrimido[2,1-c][1,4]oxazine-2-carboxamide, 4,6,7,9-tetrahydro-3-hydroxy-9,9-dimethyl-N-[(4-methylphenyl)methyl]-4-oxo-] | 2 to 100
CC1(C)OCCn2c1nc(C(=O)NCc1ccc(F)c(C(F)(F)F)c1)c(O)c2=O [Example 241, Pyrimido[2,1-c][1,4]oxazine-2-carboxamide, N-[[4-fluoro-3-(trifluoromethyl)phenyl]methyl]-4,6,7,9-tetrahydro-3-hydroxy-9,9-dimethyl-4-oxo-] | 2 to 100
COc1ccccc1CNC(=O)c1nc2n(c(=O)c1O)CCOC2(C)C [Example 242, Pyrimido[2,1-c][1,4]oxazine-2-carboxamide, 4,6,7,9-tetrahydro-3-hydroxy-N-[(2-methoxyphenyl)methyl]-9,9-dimethyl-4-oxo-] | 2 to 100
CCOc1ccccc1CNC(=O)c1nc2n(c(=O)c1O)CCOC2(C)C [Example 243, Pyrimido[2,1-c][1,4]oxazine-2-carboxamide, N-[(2-ethoxyphenyl)methyl]-4,6,7,9-tetrahydro-3-hydroxy-9,9-dimethyl-4-oxo-] | 2 to 100
COc1ccc(CNC(=O)c2nc3n(c(=O)c2O)CCOC3(C)C)cc1 [Example 244, Pyrimido[2,1-c][1,4]oxazine-2-carboxamide, 4,6,7,9-tetrahydro-3-hydroxy-N-[(4-methoxyphenyl)methyl]-9,9-dimethyl-4-oxo-] | 2 to 100
COc1cc(CNC(=O)c2nc3n(c(=O)c2O)CCOC3(C)C)ccc1F [Example 245, Pyrimido[2,1-c][1,4]oxazine-2-carboxamide, N-[(4-fluoro-3-methoxyphenyl)methyl]-4,6,7,9-tetrahydro-3-hydroxy-9,9-dimethyl-4-oxo-] | 2 to 100
CC1(C)OCCn2c1nc(C(=O)NCc1ccc(F)cc1C(F)(F)F)c(O)c2=O [Example 246, Pyrimido[2,1-c][1,4]oxazine-2-carboxamide, N-[[4-fluoro-2-(trifluoromethyl)phenyl]methyl]-4,6,7,9-tetrahydro-3-hydroxy-9,9-dimethyl-4-oxo-] | 2 to 100
CCc1cc(CNC(=O)c2nc3n(c(=O)c2O)CCOC3(C)C)ccc1F [Example 247, Pyrimido[2,1-c][1,4]oxazine-2-carboxamide, N-[(3-ethyl-4-fluorophenyl)methyl]-4,6,7,9-tetrahydro-3-hydroxy-9,9-dimethyl-4-oxo-] | 2 to 100
